Entries after “also recorded” stand apart in the source; their conditions may differ. Where two headings read alike, the source gives them in different places.

The target in series [1] is P-gp (P-gp over-expressing cell line, DU145TXR) (Homo sapiens, UniProt P08183). The series can be described thus: Cellular accumulation of experimental compounds by LC-MS/MS with and without tariquidar. Conditions: for Transport substrate for P-gp: not told. The protocol:
Stimulation of basal ATPase by 29-variants was used as an indicator that a compound may be a P-gp transport substrate. Effects on stimulated P-gp ATPase activity indicated whether a compound directly interfered with ATP usage by the protein (***, p<0.001; **, p<0.01; *, p<0.1; NS, not significant). Quantitative cellular accumulation of 29-variants was performed using LC-MS/MS and is presented as a ratio of the cellular amounts of 29-variants in the presence of P-gp inhibitor, tariquidar, divided by amounts accumulated in its absence. […] Binding of an ATP analog, SL-ATP, to P-gp was used to determine whether ATP binding to P-gp was affected by the 29-variants. Values +/−standard deviations are shown for at least three different P-gp preparations and three independent SL-ATP titration experiments. The values for SL-ATP binding in the presence of 29 were taken directly from Brewer et al. (2014).
Intracellular accumulation of compound 29 variants. Cell accumulation assays for each of the 29 variants were performed as in reference^28 to more directly assess whether the compounds were indeed transport substrates for P-gp.
Cellular Accumulation Assays for Experimental P-gp Inhibitors. Cells used (DU145TXR), cell culturing, cell exposure to compounds, cellular handling and extractions were performed as described in^28. LC-MS/MS methods were performed as described in^71 and as modified in^28.

Series [2] deals with P-gp overexpressing prostate cancer cell line, DU145TXR. Kind of series: MTT cell viability assay, resensitization to paclitaxel. Conditions: for Fold vs PTX + 29: vs paclitaxel + parental compound 29; for Fold vs PTX (fold increased sensitivity): vs paclitaxel alone; for Resensitization of DU145TXR to paclitaxel / MDR reversal (in words): 3 to 10 μM inhibitor. Type of series: cell-based, human. The text has this:
The Group 1 ChemGen/docking routine produced variants of P-gp inhibitor 29 resensitize a multidrug resistant, P-gp overexpressing prostate cancer cell line to paclitaxel. The mitochondrial reduction potential of cells is often used as an indicator for cell viability using MTT assays^4. Using these assays it was observed that the five Group 1 derivatives of 29 predicted through the ChemGen/docking routine and synthesized here, 216, 227, 231, 541 and 551, re-sensitized the P-gp overexpressing prostate cancer cell line, DU145TXR^33, to the chemotherapeutic, paclitaxel (FIG. 12, showing results of assays at concentrations of 3 μM, 5 μM, 7 μM, and 10 μM).
Cytotoxicity of the chemotherapeutic, paclitaxel (PTX) to P-gp overexpressing prostate cancer cells, DU145TXR, was determined in the absence and presence of the ChemGen designed 29-variants, 216, 227, 231, 541 and 551. For each experimental compound IC50 values of PTX alone or in the presence of inhibitors, fold improvement of PTX sensitivity in the presence of inhibitor, and fold improvement of PTX sensitivity by variants compared to parental compound 29 are given.
Effects of Group 2 variants on the paclitaxel sensitivity of P-glycoprotein overexpressing prostate cancer cells, DU145TXR. MTT assays were again used to assess the efficacy of the new structural 29-variants on sensitizing the chemotherapy-resistant prostate cancer cell line, DU145TXR, to paclitaxel, at concentrations of 3 μM, 5 μM, 7 μM, and 10 μM as shown in FIG. 15 and Table 4.
MTT cell viability assay. Cells were trypsinized from monolayers and seeded with 3000 cells in 150 μL of complete medium in a 96 well plate. After 24 hours, cells were treated for 48 hours with paclitaxel (Acros Organics, NJ) and/or P-gp inhibitory compounds dissolved in DMSO, or DMSO controls. All additions were diluted into complete medium. After 48 hours of treatment, MTT assays were performed as described^41 using 5 mg/mL of MTT (Acros Organics, NJ) solution prepared in PBS (137 mM NaCl, 2.7 mM KCl, 10 mM Na2HPO4, 1.8 mM KH2PO4, pH 7.4). After 4 hours of incubation with MTT, the media was removed and the formazan crystals were dissolved in 100 μL of DMSO. The absorbance at 570 nm was then measured using a BioTek Cytation 5 imaging multi-mode reader (Bio-Tek, Winooski, Vt.). Percent viability was calculated using DMSO treated cells as representative for 100% viability, according to Equation 1. Background absorbance was determined using MTT and complete medium without cells and subtracted from all the test values. Equation 1:
The results were plotted as the mean with standard deviation (SD) of eight replicates per concentration from at least two independent experiments with n=8. The graphical representations and IC50 values were determined using four parameter variable slope non-linear regression, using the following equation: Y=bottom+(top-bottom)/(1+10^((log IC50−X)*Hill Slope) (GraphPad Prism™, La Jolla Calif., USA, Version 6.05). The reported “fold sensitization” was calculated as follows, per Equation 2: […]
A general note: Tetrazolium assays rely on reduction of a dye to a coloured formazan, in cell work by metabolically active cells.

Series [3] addresses T1, P-gp-catalyzed transport of calcein AM in DU145TXR cells (Homo sapiens, UniProt P08183).
T1 construct: DU145 human prostate cancer cells^52 as well as the multidrug resistant sub-line, DU145TXR; endogenous in cells; host or cells: DU145TXR (paclitaxel-selected sub-line of human DU145 prostate cancer cells)
Kind of series: Calcein AM accumulation assay. Conditions: after 6-hour pre-incubation, compared to parental 29. The series is classed as cell-based. As to the method: Accumulation and cellular retention of calcein AM in P-gp overexpressing prostate cancer cells upon incubation with Group 1 SMU-29 variants. Calcein AM accumulation assays have been used by us previously to evaluate P-gp-substrate accumulation in real time in the presence or absence of P-gp inhibitors^28. For these assays, P-gp overexpressing DU145TXR cells were incubated with the respective inhibitors in the presence of the P-gp substrate, calcein AM. Inhibition of P-gp leads to cellular accumulation of calcein AM and to cleavage of its acetoxymethyl ester groups, resulting in the generation of the highly fluorescent compound, calcein. The anionic calcein is not a substrate of P-gp and remains in the cells. In these assays, the relative fluorescence of cellular calcein was measured over time and the results of these assays are shown in FIG. 13A. […]
Calcein AM assay. To assess inhibition of P-gp-catalyzed transport of the P-gp pump substrate, calcein AM, DU145TXR cells were seeded in 96 wells plates and allowed to grow in complete medium until confluency was reached. Medium was removed, and cells were treated […] P-gp inhibitory compounds and 1 μg/mL calcein AM (Life Technologies, OR) and diluted into phenol red free RPMI 1640 media. To study the effect of pre-incubation of compounds, cells were treated with just P-gp inhibitory compounds and incubated at 37° C. for six hours before adding calcein AM. Fluorescence excitation at 485 nm with a 20 nm gate and at emission at 535 nm with a 20 nm gate was measured using a BioTek Cytation 5 imaging multi-mode reader (Bio-Tek, Winooski, Vt.) over 60 minutes in 20 minute intervals. DMSO was used as vehicle. Results were plotted as the mean with standard deviation (SD) of six replicates per concentration and are representative of at least two independent experiments.

Sequence of P-gp (P-gp over-expressing cell line, DU145TXR) (P08183 whole entry): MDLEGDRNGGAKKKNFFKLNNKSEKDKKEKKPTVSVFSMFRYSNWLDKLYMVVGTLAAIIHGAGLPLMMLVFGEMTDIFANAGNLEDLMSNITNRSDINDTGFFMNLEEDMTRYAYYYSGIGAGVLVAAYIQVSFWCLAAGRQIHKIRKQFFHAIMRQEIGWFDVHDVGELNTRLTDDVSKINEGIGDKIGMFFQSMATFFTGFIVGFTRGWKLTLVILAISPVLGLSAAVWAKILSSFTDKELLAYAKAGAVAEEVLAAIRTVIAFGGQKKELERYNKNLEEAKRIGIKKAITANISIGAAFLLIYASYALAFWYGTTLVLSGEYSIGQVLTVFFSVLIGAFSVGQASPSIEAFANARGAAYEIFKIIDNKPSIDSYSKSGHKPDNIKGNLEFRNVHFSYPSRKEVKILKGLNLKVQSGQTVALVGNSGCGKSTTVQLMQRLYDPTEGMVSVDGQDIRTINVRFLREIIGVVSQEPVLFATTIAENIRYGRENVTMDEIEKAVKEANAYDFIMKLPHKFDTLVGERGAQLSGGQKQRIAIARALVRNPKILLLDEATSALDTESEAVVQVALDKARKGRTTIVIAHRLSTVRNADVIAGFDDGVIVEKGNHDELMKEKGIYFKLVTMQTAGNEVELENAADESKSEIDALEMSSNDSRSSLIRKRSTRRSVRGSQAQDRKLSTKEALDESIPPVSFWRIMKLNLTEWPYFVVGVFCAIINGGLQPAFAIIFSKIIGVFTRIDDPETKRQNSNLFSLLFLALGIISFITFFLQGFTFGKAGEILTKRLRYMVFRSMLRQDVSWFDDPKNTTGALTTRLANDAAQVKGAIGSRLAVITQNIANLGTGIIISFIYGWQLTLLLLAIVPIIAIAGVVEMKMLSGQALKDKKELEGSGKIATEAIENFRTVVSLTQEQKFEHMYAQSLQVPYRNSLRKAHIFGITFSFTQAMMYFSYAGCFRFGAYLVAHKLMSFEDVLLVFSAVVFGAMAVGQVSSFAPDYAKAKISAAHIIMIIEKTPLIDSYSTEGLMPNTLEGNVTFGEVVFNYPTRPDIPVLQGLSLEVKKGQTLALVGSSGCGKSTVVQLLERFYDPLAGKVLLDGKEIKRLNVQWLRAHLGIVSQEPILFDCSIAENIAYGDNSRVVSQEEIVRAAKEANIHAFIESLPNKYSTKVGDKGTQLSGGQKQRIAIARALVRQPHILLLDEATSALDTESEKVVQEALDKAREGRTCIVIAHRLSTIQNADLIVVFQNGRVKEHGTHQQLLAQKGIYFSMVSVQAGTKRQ
T1 sequence (P08183 whole entry): as above

As to “2-{[2-(9H-flouoren-2-yl)-2-oxoethyl]}-N-[1-phenyl-3-(2,4,5-trimethylphenyl0-1H-pyrazol-5-yl]acetamide [29-216]”, the “Cellular accumulation: ratio of plus Tariquidar over no Tariquidar” value in series [1] was found to be 1.1. Moreover, the “Fold vs PTX + 29” value is recorded as 1.3 fold in series [2] (5 μM inhibitor), 1 fold in series [2] (7 μM inhibitor) and 0.4 fold in series [2] (10 μM inhibitor). Further, the figures for the “Fold vs PTX (fold increased sensitivity)” value in series [2] (5 μM inhibitor), in series [2] (7 μM inhibitor) and in series [2] (10 μM inhibitor) were 14 fold, 34 fold and 37 fold, respectively.

On to `Cc1cc(C)c(-c2cc(NC(=O)CSCC(=O)N3c4ccccc4CCc4ccccc43)n(-c3ccccc3)n2)cc1C` [29-227, 2-[(2-{2-azatricyclo[9.4.0.0]pentadeca-1(11),3(8},4,6,12,14-hexaen-2-yl)-2-oxoethyl)sulfanyl]-N-[1-phenyl-3-(2,4,5-trimethylphenyl)-1H-pyrazol-5-yl]acetamide], for which, in series [1], the “Cellular accumulation: ratio of plus Tariquidar over no Tariquidar” value is listed as 1.0. For the same molecule, the “Fold vs PTX + 29” value is reported as 3.8 fold in series [2] (3 μM inhibitor, listed as 227); 3.7 fold in series [2] (5 μM inhibitor); 10 fold in series [2] (7 μM inhibitor); 5 fold in series [2] (10 μM inhibitor). The “Fold vs PTX (fold increased sensitivity)” value in series [2] (3 μM inhibitor) amounted to 13 fold; in series [2] (5 μM inhibitor) it was 41 fold; in series [2] (7 μM inhibitor), 353 fold; in series [2] (10 μM inhibitor) it was 530 fold. In addition, in series [2] (listed as 227), the “Resensitization of DU145TXR to paclitaxel / MDR reversal (in words)” value is on record as “re-sensitized; also recorded: more effective than 29 at all concentrations tested”.

As to `Cc1cc(C)c(-c2cc(NC(=O)CSCC(=O)Nc3ccc4ccccc4c3)n(-c3ccccc3)n2)cc1C` [29-231, 2-({[(naphthalen-2-yl)carbamoyl]methyl}sulfanyl)-N-[1-phenyl-3-(2,4,5-trimethylphenyl)-1H-pyrazol-5-yl]acetamide], the “Intracellular accumulation in absence vs presence of tariquidar (in words)” value in series [1] is recorded as “no significant cellular accumulation”. Moreover, in series [1] (human), the “Cellular accumulation: ratio of plus Tariquidar over no Tariquidar” value amounted to 0.9. Also, the “Transport substrate for P-gp” value was “none of the Group 1 compounds functions as a transport substrate of P-gp” in series [1] (human) and “no” in series [1]. Further, the “Fold vs PTX + 29” value in series [2] (3 μM inhibitor, listed as 231) was determined as 4.1 fold; in series [2] (5 μM inhibitor) it was 4.2 fold; in series [2] (7 μM inhibitor), 8.4 fold; in series [2] (10 μM inhibitor), 11 fold. Also, the “Fold vs PTX (fold increased sensitivity)” value is 14 fold in series [2] (3 μM inhibitor), 46 fold in series [2] (5 μM inhibitor), 303 fold in series [2] (7 μM inhibitor) and 1060 fold in series [2] (10 μM inhibitor). The “Resensitization of DU145TXR to paclitaxel / MDR reversal (in words)” value in series [2] (listed as 231) is “re-sensitized; also recorded: more effective than 29 at all concentrations tested”.

`COc1cc(NC(=O)CSCC(=O)Nc2cc(-c3cc(C)c(C)cc3C)nn2-c2ccccc2)cc(OC)c1OC` [29-238, N-[1-phenyl-3-(2,4,5-trimethylphenyl)-1H-pyrazol-5-yl]-2-({[(3,4,5-trimethoxyphenyl)carbamoyl]methyl}sulfanyl)acetamide]: in series [1], the “Intracellular accumulation in absence vs presence of tariquidar (in words)” value is “very large and significant increase”. For the same molecule, the “Cellular accumulation: ratio of plus Tariquidar over no Tariquidar” value in series [1] (human) was found to be 1.9. Moreover, the “Fold vs PTX + 29” value in series [2] (3 μM inhibitor) is reported as 3.4 fold; in series [2] (5 μM inhibitor), “around 100 fold”; in series [2] (7 μM inhibitor), “around 100 fold”; in series [2] (10 μM inhibitor), 300 fold. Further, the “Fold vs PTX (fold increased sensitivity)” value in series [2] (5 μM inhibitor) is listed as “about a thousand-fold”. For the same molecule, the “Resensitization of DU145TXR to paclitaxel / MDR reversal (in words)” value in series [2] (listed as 238) is “increased paclitaxel toxicities to the greatest extents; also recorded: vastly outperformed compounds 278, 280 and 286; also recorded: strongest reversal of MDR”. Moreover, the “Calcein accumulation in DU145TXR (in words)” value in series [3] is on record as “remained strongest”.

On to `Cc1cc(C)c(-c2cc(NC(=O)CSCC(=O)NC(c3ccccc3)c3ccccc3)n(-c3ccccc3)n2)cc1C` [29-280, N-(diphenylmethyl)-2-[({[1-phenyl-3-(2,4,5-trimethylphenyl)-1H-pyrazol-5-yl]carbamoyl)methyl}sulfanyl]acetamide], for which, in series [1] (human), the “Cellular accumulation: ratio of plus Tariquidar over no Tariquidar” value is on record as 1.2. Also, in series [3], the “Calcein accumulation in DU145TXR (in words)” value was “comparable to 29”.

Regarding `Cc1cc(C)c(-c2cc(NC(=O)CSc3nnc(C4CC4)[nH]3)n(-c3ccccc3)n2)cc1C` [compound 29, reference compound], in series [1], the “Cellular accumulation: ratio of plus Tariquidar over no Tariquidar” value was 1.0. The “Intracellular accumulation in absence vs presence of tariquidar (in words)” value in series [1] was “no significant difference”. Further, the “Fold vs PTX + 29” value in series [2] (3 μM inhibitor), in series [2] (5 μM inhibitor), in series [2] (7 μM inhibitor) and in series [2] (10 μM inhibitor) was 1 fold each time. Besides, the “Fold vs PTX (fold increased sensitivity)” value in series [2] (3 μM inhibitor) stood at 3 fold; in series [2] (5 μM inhibitor), 11 fold; in series [2] (7 μM inhibitor), 36 fold; in series [2] (10 μM inhibitor), 101 fold.

These data come from patent publication US20210134398A1, “Combinatorial Chemistry Computational System and Enhanced Selection Method” (Southern Methodist University, priority 2019, published 2021).
